Test: Solubility test (saturated aqueous solution in distilled water, gravimetric)
Format: physicochemical
Settings: room temperature, calculated according to Equation 1
Protocol: Each of compounds of Examples 1 and 5 and 7-dehydrocholesterol as a comparative material was dissolved in an amount of 100 mg in 100 ml of distilled water, followed by stirring at room temperature for 1 hour. The procedure was repeated until each compound was saturated and those being not dissolved were filtered, to prepare each saturated aqueous solution.
Then, the saturated aqueous solution was put into a weighed empty container (A), followed by weighing (B). Then, the saturated aqueous solution in the container was concentrated in reduced pressure and dried under vacuum, followed by weighing (C). The solubility of each solution was calculated according to the following Equation 1, and the results thereof are shown in Table 2.

CC(C)CCC[C@@H](C)[C@H]1CC[C@H]2C3=CC=C4C[C@@H](O)CC[C@]4(C)[C@H]3CC[C@]12C [7-Dehydrocholesterol, 7-dehydrocholesterol]
Solubility: Insoluble

From patent US20170000715A1, “PEGYLATED 7-DEHYDROCHOLESTEROL DERIVATIVES” (HUMEDIX CO., LTD., priority 2014, published 2017)
